Experimental data taken from patent publication US20250268913A1, “PKC INHIBITORS FOR THE TREATMENT OF SEPTIC CHOLESTASIS WITH CTM TARGETING” (SMARTDYELIVERY GMBH, priority 2018, published 2025).

What was measured:
PCI model, C57/BL6 mice = experiment: Survival rate in cholestasis model under septic conditions, peritoneal contamination and infection (PCI); type: in vivo; conditions: free drug alone, 4 mg/kg body weight
Procedure: In order to mimic the septic cholestasis, a systemic inflammation was induced using the well-established peritoneal contamination and infection (PCI) model. In this model, a human feces suspension is applied intraperitoneally (i.p.) and rapidly triggers sepsis with liver dysfunction. For each batch of human stool, the dose is titrated carefully for a survival between 0% and 20% within two weeks.
To find the adequate dose of stool, different doses were tested. 6 h after i.p. application of the stool, 8-12 weeks old C57/BL6 mice or FVB/N mice were treated with the nanoparticles or the free drug respectively.
A systemic infection/sepsis with organ failure was induced in male C57/BL6 mice by using the PCI model. For this purpose, a human fecal suspension (2.5 μl/g BW for stool batch1 and 6 μl/g for stool batch 2, respectively) was injected intraperitoneally (without anesthesia) with weight adaptation, thus triggering peritonitis with subsequent systemic infection. […] The animals were closely monitored and scored every 6 hours for signs of infection in order to timely. […] With the evaluated dose of 6 μl/g BW stool and additional antibiotic therapy, all mice died within three days, as shown in the Kaplan-Meier-Schätzer diagram (FIG. 14, right panel). […]

[1] = compared to placebo; cited from earlier work
[2] = cited from earlier work

Compound: O=C1NC(=O)/C(=C\c2ccc3nccnc3c2)S1 [AS605240]
- activity of free drug (survival) (PCI model, C57/BL6 mice): active

Compound: CN(C)CCCn1cc(C2=C(c3c[nH]c4ccccc34)C(=O)NC2=O)c2ccccc21 [BIM-1]
- activity of free drug (survival) (PCI model, C57/BL6 mice): active

Compound: CC[C@H](Nc1ncnc2[nH]cnc12)c1nc2cccc(F)c2c(=O)n1-c1ccccc1 [idelalisib]
- risk of developing sepsis as adverse effect [1]: five-fold higher

Compound: CO[C@@H]1[C@H](N(C)C(=O)c2ccccc2)C[C@H]2O[C@]1(C)n1c3ccccc3c3c4c(c5c6ccccc6n2c5c31)C(=O)NC4 [midostaurin]
- Serious adverse reactions due to infections and gastrointestinal disorders ([2]; most common serious adverse reactions): ≥ 20%
- on-treatment deaths from disease progression attributed to infection ([2]; number of deaths): 4
- adverse reaction sepsis occurring in patients ([2]; page 8 of the professional information): ≥ 9 % of patients
- Grade ≥3 adverse reactions reported (fatigue, sepsis, gastrointestinal hemorrhage, pneumonia, diarrhea, febrile neutropenia) ([2]; patients): ≥ 5%
- Serious adverse reactions ([2]; patients): 68 % of patients
- Treatment discontinuation due to adverse reaction ([2]; patients): 21 % of patients
